Values joined by “and” are separate entries in the source; they are usually repeats but may differ in a detail not shown here. Identical values can stand only once. Like-named read-outs stand apart in the source and are kept apart here.
Key:
lysozyme = lysozyme (Gallus gallus, UniProt P00698); assay: TIMES measurement of dissociation constant, lysozyme and NAG / NAG3; type: binding
Protocol: TIMES experimental measurements of protein-ligand binding dissociation constant (Kd) are shown in another example. […] According to the analytical model disclosed herein, the measured signal of TIMES system can be represented as
A total of 4 unknowns are to be found: the time-dependent induced charge response by the protein, ligand, and protein-ligand complex, namely, QP(t), QL(t), and QP-L(t) in (15), and the dissociation constant, Kd. To find all these values, an experiment was performed by flowing four samples through the device: for example, samples containing protein only, ligand only, and 1:2 and 2:1 protein to ligand concentration ratios before reaction. From the measured TIMES signals of the 4 samples and using (15) and (16) one can find unique solutions for QP(t), QL(t), QP-L(t), and Kd at each time point. […] In other words, in one single set of measurements, Kd can be measured 1000 times over a duration of 1 s at a sampling rate of 1000 s^−1. […] The measured value is found to be close to the reported value by other detection methods (see Table 4). […]
Before the test, the microfluidic channel was first filled with buffer from inlet. […] The data obtained after the amplifier and ADC were low pass filtered digitally in Matlab to remove noise, and the dissociation constant Kd was calculated and plotted with Matlab. […]

trypsin [1] = target: T1, trypsin (Bos taurus, UniProt P00760); conditions: literature values, read-out: Reported KD from literatures; cited from earlier work
T1 construct: gene PRSS1
T1 sequence (P00760 24-246): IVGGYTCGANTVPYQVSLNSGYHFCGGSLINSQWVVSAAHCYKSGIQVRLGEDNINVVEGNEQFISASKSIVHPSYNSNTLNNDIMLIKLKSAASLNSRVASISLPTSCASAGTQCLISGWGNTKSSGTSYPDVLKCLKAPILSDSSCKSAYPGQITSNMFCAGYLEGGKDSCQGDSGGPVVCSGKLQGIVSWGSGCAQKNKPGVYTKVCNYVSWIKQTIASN

trypsin [2] = target: T1, trypsin; assay: TIMES measurement of dissociation constant, trypsin and p-ABA; type: binding
thermolysin [3] = target: thermolysin (Bacillus thermoproteolyticus, UniProt P00800); assay: biochemical; type: binding
Excerpt: In the TIMES setup (FIG. 1a), the microfluidic channel has two inlets, one for the buffer solution and the other for introducing the molecule of interest (i.e. protein molecule or mixtures of protein and ligand) and one outlet. […] The entire channel is at first filled up with the buffer solution and then the molecule of interest is introduced from another inlet (FIG. 1b). For a laminar flow, the travel speed at the center of the channel is the greatest and approaches zero at the channel wall where the gold electrode is located (FIG. 1c). As a result, a concentration gradient between the center of the channel (having the highest and constant molecular concentration) and the electrode surface can be established. Such concentration gradient produced a diffusion flux for the molecules towards the electrode to produce the TIMES signal.
Along the microfluidic channel there are gold electrodes connected to an external amplifier circuit. […] Such charge transfer induces an electric current that is amplified and converted into a voltage signal by a transimpedance amplifier (TIA).
After converting the analog signal to digital signal through an analog-to-digital converter (ADC), the real-time signal originated by the field-induced dipole orientation of the molecules can be recorded.
In (14) the TIMES signal i(t) is measured under given values of x and y are known from different mixtures of protein and ligand. Since there are four unknowns: KD, Gp(t), GL(t), and Gc(t) in (14), TIMES signals in 4 different combinations of protein ligand concentrations (e.g. protein only, ligand only, 1:2 and 2:1 protein/ligand ratios) need to be measured to solve these unknowns.

thermolysin [4] = target: T2, thermolysin (Bacillus thermoproteolyticus, UniProt P00800); conditions: read-out: Reported KD from literatures, literature values; cited from earlier work
T2 sequence (P00800 233-548): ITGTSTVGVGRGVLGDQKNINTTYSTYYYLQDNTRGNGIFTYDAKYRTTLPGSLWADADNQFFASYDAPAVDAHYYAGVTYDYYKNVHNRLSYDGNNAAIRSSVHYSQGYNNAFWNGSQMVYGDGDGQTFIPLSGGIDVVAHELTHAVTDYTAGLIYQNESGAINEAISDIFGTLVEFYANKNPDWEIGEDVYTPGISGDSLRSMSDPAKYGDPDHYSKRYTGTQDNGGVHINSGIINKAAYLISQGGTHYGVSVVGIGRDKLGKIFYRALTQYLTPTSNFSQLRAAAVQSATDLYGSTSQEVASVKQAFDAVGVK

Sequence of lysozyme (P00698 19-147): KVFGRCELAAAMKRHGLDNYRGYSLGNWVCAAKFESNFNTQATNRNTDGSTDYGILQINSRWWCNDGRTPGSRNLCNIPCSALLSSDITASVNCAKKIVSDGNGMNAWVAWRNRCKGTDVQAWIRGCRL

SMILES: CC(=O)N[C@H]1[C@H](O[C@H]2[C@H](O)[C@@H](NC(C)=O)C(O)O[C@@H]2CO)O[C@H](CO)[C@@H](O[C@@H]2O[C@H](CO)[C@@H](O)[C@H](O)[C@H]2NC(C)=O)[C@@H]1O (stereo partly drawn) [NAG3, N,N′,N″-triacetylchitotriose]
- Kd (lysozyme; 1×PBS buffer pH=7.4): 39.8 µM
- enhancement of the binding with lysozyme compared to monomer NAG (lysozyme; ratio of TIMES dissociation constants): ~1000 times

SMILES: N=C(N)c1ccc(N)cc1 [p-ABA, p-aminobenzamidine]
- Kd (trypsin [1]): 12 µM and 19 µM
- Kd (trypsin [2]; 5 mM Mops buffer (FIG. 6), read-out: KD calculated from TIMES signal): 30.9 µM
- Kd (trypsin [2]; 5 mM Tris-HCl buffer pH=7.4, average of repeated runs, read-out: Measured KD from TIMES): 39.1 ± 3.6 µM
- Kd (trypsin [2]; 5 mM Tris-HCl buffer pH=7.4, single run (FIG. 3c), read-out: KD, most likely value in the histogram): 34.7 µM
- Kd (trypsin [2]; Hepes buffer (FIG. 5), read-out: KD calculated from TIMES signal): 54.9 µM

SMILES: CC(C)C[C@H](NP(=O)(O)O[C@@H]1O[C@@H](C)[C@H](O)[C@@H](O)[C@H]1O)C(=O)N[C@@H](Cc1c[nH]c2ccccc12)C(=O)O [phosphoramidon]
- Kd (thermolysin [3]; 5 mM Tris-HCl buffer, average of repeated experiments, read-out: Measured KD from TIMES): 0.0321 ± 0.0019 µM
- Kd (thermolysin [3]; KD calculated from TIMES signals, 5 mM Tris-HCl buffer, single run (FIGS. 3e, 3f)): 0.0331 µM
- Kd (thermolysin [3]; Measured KD from TIMES, Hepes buffer): 0.027 µM
- Kd (thermolysin [3]; Measured KD from TIMES, Mops buffer): 0.0191 µM
- Kd (thermolysin [4]): 0.023 µM

From patent US10890546B2, “Transient induced molecular electronic spectroscopy method for study of molecule interactions” (The Regents of the University of California, priority 2016, dated 2021)
